Test [1] relates to bacterial strains that express the class D cephalosporinase OXA-15. Briefly: Synergy MIC / standard BLI potentiation MIC assay, strains expressing OXA-15. In kind it is cell-based, E. coli. The following applies: in presence of a β-lactam; comparator Avibactam (CCC). How it is done: (§1) Unless otherwise indicated, the activity of the BLI compounds can be described by the MIC value obtained from a Synergy MIC assay or a BLI potentiation assay (e.g as described herein), both of which are run in the presence of a β-lactam.
(§2) The experimental protocol was performed according to Clinical and Laboratory Standards Institute (CLSI) guidelines with modifications as described below (CLSI guidelines can be derived from the CLSI document M07-A9 published in January 2012: “Methods for Dilution Antimicrobial Susceptibility Tests for Bacteria That Grow Aerobically; Approved Standard-Ninth Edition”).
(§3) To prepare for MIC testing, frozen glycerol stocks of clinical isolates (Klebsiella pneumoniae, Eschericia coli, Enterobacter spp, Citrobacter spp, or Pseudomonas aeruginosa) were used to streak for isolated colonies on rich, non-selective, tryptic soy agar containing 5% sheep's blood (TSAB). Frozen glycerol stocks of laboratory engineered, isogenic E. coli strains, which contain cloned β-lactamase expressing plasmids were used to streak for isolated colonies on rich, selective LB agar supplemented with 25 μg/mL tetracycline to maintain the plasmid. All strains were incubated at 37° C. for 18-24 hrs.
(§4) On the day of testing, primary cultures were started by scraping off 5-10 colonies from the TSAB plates containing clinical strains or the tetracycline supplemented LB plates containing engineered strains. The clinical strain material was suspended in ˜5 mL of cation adjusted Mueller Hinton Broth (CAMHB) in 14 mL culture tubes. The engineered strain material was suspended in CAMHB (supplemented with 25 μg/mL tetracycline) in 14 mL culture tubes. All strains were incubated at 37° C. with aeration (200 rpm) for ˜2 hrs until the optical density at 600 nm (OD600) was ≧0.1.
(§5) The two compound components of the assay were each diluted in CAMHB and added to the 96-well broth microdilution assay plates. 50 μL of the β-lactam was added to each well of the assay plate in 2-fold dilutions with final concentrations ranging from 128 to 0.13 μg/mL. 25 μL of the BLI compound was added to all wells in the broth microdilution plates at a final concentration of 4 μg/mL. Inoculum cultures were prepared by standardizing the primary cultures to OD600=0.1 and then adding 20 μL of the adjusted primary culture per 1 mL CAMHB for clinical strains or CAMHB (supplemented with tetracycline at 100 μg/mL) for engineered strains, so that the final inoculum density was ˜10^5 colony forming units per milliliter. Diluted inoculum cultures were used to inoculate 25 μL per well in 96-well broth microdilution assay plates. The final volume of each well was 100 μL and contained a β-lactam at different concentrations, a BLIcompound at 4 μg/mL concentration, the bacterial culture at an OD600 of approximately 0.001 and when necessary tetracycline at 25 μg/mL.
(§6) Plates were incubated for 18-20 hours at 37° C. with aeration (200 rpm). Following incubation, growth was confirmed visually placing plates over a viewing apparatus (stand with a mirror underneath) and then OD600 was measured using a SpectraMax 340PC384 plate reader (Molecular Devices, Sunnyvale, Calif.). Growth was defined as turbidity that could be detected with the naked eye or achieving minimum OD600 of 0.1. MIC values were defined as the lowest concentration producing no visible turbidity.
(§7) The synergy MIC (sMIC) assay determines the concentration of the BLI required to potentiate the activity of a fixed concentration of a β-lactam antibiotic against β-lactamase producing bacterial strains. The experimental protocol was performed according to Clinical and Laboratory Standards Institute (CLSI) guidelines with modifications as described below (CLSI guidelines can be derived from the CLSI document M07-A9 published in January 2012: “Methods for Dilution Antimicrobial Susceptibility Tests for Bacteria That Grow Aerobically; Approved Standard-Ninth Edition”). […]

Test [2] has as its system bacterial strains that express KPC β-lactamases. Briefly: Synergy MIC / standard BLI potentiation MIC assay, strains expressing KPC β-lactamases. To be noted: more active for at least one KPC strain and/or better spectrum; comparator Avibactam. In kind it is cell-based, isogenic E. coli and clinical isolates. The method, then:
as §1, §2, §3, §4, §5, §6, §7

Structures can show the parent of a compound that is named as a salt.

As for `N=C(N)NC1(Cc2nnc([C@@H]3CC[C@@H]4CN3C(=O)N4OS(=O)(=O)O)o2)CC1` [Compound 739, (2S,5R)-2-(5-((1-guanidinocyclopropyl)methyl)-1,3,4-oxadiazol-2-yl)-7-oxo-1,6-diazabicyclo[3.2.1]octan-6-yl hydrogen sulfate], the “activity against bacterial strains that express OXA-15, compared with Avibactam” value in test [1] is listed as “more active than Avibactam”. In addition, the “activity and/or spectrum of activity against bacterial strains that express KPC β-lactamases, compared with Avibactam” value in test [2] is reported as “more active than Avibactam”.

With `O=C1N2C[C@@H](CC[C@H]2c2nnc(C3CNC3)o2)N1OS(=O)(=O)O` [Compound 708, (2S,5R)-2-(5-(azetidin-3-yl)-1,3,4-oxadiazol-2-yl)-7-oxo-1,6-diazabicyclo[3.2.1]octan-6-yl hydrogen sulfate], in test [1], the “activity against bacterial strains that express OXA-15, compared with Avibactam” value is given as “more active than Avibactam”. In test [2], the “activity and/or spectrum of activity against bacterial strains that express KPC β-lactamases, compared with Avibactam” value is given as “more active than Avibactam”.

As for `N=C(N)NC[C@H](O)c1nnc([C@@H]2CC[C@@H]3CN2C(=O)N3OS(=O)(=O)O)o1` [Compound 732, (2S,5R)-2-(5-((S)-2-guanidino-1-hydroxyethyl)-1,3,4-oxadiazol-2-yl)-7-oxo-1,6-diazabicyclo[3.2.1]octan-6-yl hydrogen sulfate], in test [1], the “activity against bacterial strains that express OXA-15, compared with Avibactam” value was “more active than Avibactam”. The “activity and/or spectrum of activity against bacterial strains that express KPC β-lactamases, compared with Avibactam” value in test [2] is listed as “more active than Avibactam”.

Take `O=C1N2C[C@@H](CC[C@H]2c2nnc(CNC3CNC3)o2)N1OS(=O)(=O)O` [Compound 726, (2S,5R)-2-(5-((azetidin-3-ylamino)methyl)-1,3,4-oxadiazol-2-yl)-7-oxo-1,6-diazabicyclo[3.2.1]octan-6-yl hydrogen sulfate]: the “activity against bacterial strains that express OXA-15, compared with Avibactam” value in test [1] was “more active than Avibactam”. Moreover, the “activity and/or spectrum of activity against bacterial strains that express KPC β-lactamases, compared with Avibactam” value in test [2] was “more active than Avibactam”.

For `N[C@H]1C[C@H](c2nnc([C@@H]3CC[C@@H]4CN3C(=O)N4OS(=O)(=O)O)o2)C1` [Compound 727, (2S,5R)-2-(5-((1r,3S)-3-aminocyclobutyl)-1,3,4-oxadiazol-2-yl)-7-oxo-1,6-diazabicyclo[3.2.1]octan-6-yl hydrogen sulfate], the “activity against bacterial strains that express OXA-15, compared with Avibactam” value in test [1] is “more active than Avibactam”. The “activity and/or spectrum of activity against bacterial strains that express KPC β-lactamases, compared with Avibactam” value in test [2] was “more active than Avibactam”.

With `N[C@@H]1CC[C@H](c2nnc([C@@H]3CC[C@@H]4CN3C(=O)N4OS(=O)(=O)O)o2)C1` [Compound 729, (2S,5R)-2-(5-((1S,3R)-3-aminocyclopentyl)-1,3,4-oxadiazol-2-yl)-7-oxo-1,6-diazabicyclo[3.2.1]octan-6-yl hydrogen sulfate], the “activity against bacterial strains that express OXA-15, compared with Avibactam” value in test [1] is listed as “more active than Avibactam”. Besides, the “activity and/or spectrum of activity against bacterial strains that express KPC β-lactamases, compared with Avibactam” value in test [2] is reported as “more active than Avibactam”.

For the molecule `O=C1N2C[C@@H](CC[C@H]2c2nnc(CCCNC3CCNCC3)o2)N1OS(=O)(=O)O` [Compound 771, (2S,5R)-7-oxo-2-(5-(3-(piperidin-4-ylamino)propyl)-1,3,4-oxadiazol-2-yl)-1,6-diazabicyclo[3.2.1]octan-6-yl hydrogen sulfate], in test [1], the “activity against bacterial strains that express OXA-15, compared with Avibactam” value was “more active than Avibactam”. The “activity and/or spectrum of activity against bacterial strains that express KPC β-lactamases, compared with Avibactam” value in test [2] was “more active than Avibactam”.

As for `N[C@H]1C[C@@H](c2nnc([C@@H]3CC[C@@H]4CN3C(=O)N4OS(=O)(=O)O)s2)C1` [Compound 795, (2S,5R)-2-(5-((1s,3R)-3-aminocyclobutyl)-1,3,4-thiadiazol-2-yl)-7-oxo-1,6-diazabicyclo[3.2.1]octan-6-yl hydrogen sulfate], the “activity against bacterial strains that express OXA-15, compared with Avibactam” value in test [1] is given as “more active than Avibactam”. The “activity and/or spectrum of activity against bacterial strains that express KPC β-lactamases, compared with Avibactam” value in test [2] was “more active than Avibactam”.

The record behind these values is patent publication US8933233B2, “1,3,4-oxadiazole and 1,3,4-thiadiazole β-lactamase inhibitors” (priority 2012, dated 2015).
